{"source": "paper PMC2924234", "about": "(Acta Crystallographica Section D: Biological Crystallography, 2006)", "key": {"[1]": {"tested_on": "male CF-1 mice", "conditions": "mouse, in vivo"}, "[2]": {"tested_on": "potassium ion-channel", "conditions": "cited from earlier work"}}, "data": [{"substance": "conkunitzin-S1", "values": [{"measurement": "95% confidence limits of the ED50 of seizure activity", "setting": "[1]", "value": "0.3 to 2", "unit": "nmol"}, {"measurement": "Behaviour observed after injection", "setting": "[1]", "value": "spastic running followed by tonic extension seizures"}, {"measurement": "ED50 of seizure activity", "setting": "[1]", "value": 1, "unit": "nmol per mouse"}, {"measurement": "Pore-blocking activity", "setting": "[2]", "value": "potassium ion-channel pore-blocking toxin"}]}]}
